According to publication PMC11193748 (Communications Biology, 2024):
Where two headings read alike, the source gives them in different places.

Experiments:
LcsG = biological target: T1, LcsG (Purpureocillium lilacinum, UniProt A0A179H2P2); assay: Michaelis-Menten enzyme kinetics of LcsG with leucinostatin substrates; type: biochemical, Purpureocillium lilacinum PLBJ-1; settings: for Kcat/Km: compound as substrate of LcsG, from the Michaelis-Menten fit; for Kcat / Km: compound as substrate, 1 μM LcsG, 34 °C, 30 min, product formation by LC-MS, nonlinear regression, n = 3
T1 construct: pACYC-lcsG was generated by integrating the lcsG gene from the PLBJ-1 cDNA into the protein expression vector pACYCDuet-1; His6 (N); His6 (C); made in house; host or cells: E. coli ArcticExpress (DE3)
T1 sequence (A0A179H2P2 1-468): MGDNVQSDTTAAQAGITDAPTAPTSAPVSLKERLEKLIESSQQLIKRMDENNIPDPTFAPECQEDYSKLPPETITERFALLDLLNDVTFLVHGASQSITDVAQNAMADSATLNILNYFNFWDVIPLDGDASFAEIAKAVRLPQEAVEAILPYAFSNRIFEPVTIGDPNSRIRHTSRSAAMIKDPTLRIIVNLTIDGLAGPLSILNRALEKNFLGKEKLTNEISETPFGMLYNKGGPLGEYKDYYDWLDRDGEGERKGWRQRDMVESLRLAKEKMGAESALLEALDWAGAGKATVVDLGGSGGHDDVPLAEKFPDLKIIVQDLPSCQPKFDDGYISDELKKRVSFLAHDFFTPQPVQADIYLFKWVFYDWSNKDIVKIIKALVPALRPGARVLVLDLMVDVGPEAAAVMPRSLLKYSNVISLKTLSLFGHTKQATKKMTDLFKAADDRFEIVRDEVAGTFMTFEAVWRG
Procedure: The compounds were quantified by an external standard method and calibration curves were constructed using LeuA0 and LeuK3. In this study, LeuA0 was diluted to concentrations of 25, 50, 100, 250, and 500 nM. LeuK3 was also diluted to concentrations of 50, 100, 250, 500, and 1000 nM. Dilutions were prepared in MeCN, and calibration curves were constructed using the software GraphPad Prism 9.
The kinetic constants of LcsG were determined by the following approach: 1 μM LcsG was assayed against different specific concentrations of the substrates LeuA (2, 4, 8, 10, 20, 40, 80, 100, 120, 150, and 200 μM) and LeuK0 (4, 8, 10, 20, 40, 80, 100, 120, 140, and 160 μM). The initial rate of the reaction was measured by monitoring the formation of products (LeuA0 or LeuK3) at 34 °C for 30 min. The rates were plotted against substrate concentration using the Michaelis‒Menten kinetics equation by nonlinear regression analysis with the software GraphPad Prism 9, and Km and Kcat constants were generated from the resulting Michaelis‒Menten plot.
LC‒MS analyses were performed on an Agilent 1290 Infinity II HPLC with an Agilent Infinity Lab single quadrupole mass selective detector by using an Agilent Zorbax Eclipse Plus C18 reversed-phase column (2.1 × 100 mm, 2.7 μm). Water (A) with 0.1% (v/v) formic acid and acetonitrile (B) were used as the solvents at a flow rate of 0.25 ml min^−1. The substances were eluted with 10% (v/v) B for 1 min, subjected to a linear gradient from 10 to 100% (v/v) B for 12 min, washed with 100% solvent B for 5 min, and equilibrated with 5% solvent B for 10 min at a flow rate of 0.25 ml/min. The mass spectrometer was set in electrospray positive ion mode for ionization.

C. neoformans = settings: cited from earlier work
P. infestans [1] = settings: cited from earlier work
P. infestans [2] = tested on: P. infestans

| Substance | Kcat/Km (LcsG) [M⁻¹ s⁻¹] | Kcat (LcsG) [s⁻¹] | Km (LcsG) [µM] | inhibitory effects on C. neoformans (C. neoformans) | inhibitory effects on P. infestans (P. infestans [1]) | inhibitory effects on P. infestans (P. infestans [1]; previous studies) | growth inhibition, agar diffusion assay (C. neoformans H99) | growth inhibition, agar diffusion assay (P. infestans [2]) |
| --- | --- | --- | --- | --- | --- | --- | --- | --- |
| leucinostatin A [LeuA] | 65.39 | 0.00075 | 11.5 | inhibitory effects | inhibitory effects | – | – | – |
| leucinostatin B [LeuB] | – | – | – | inhibitory effects | – | inhibitory effects | – | – |
| leucinostatin K0 [LeuK0] | 32.94 | 0.00624 | 189 | – | – | – | inhibitory effects | inhibitory effects |
